Measured values taken from patent US20020049157A1, “Use of proteasome inhibitors for treating cancer, inflammation, autoimmune disease, graft rejection and septic shock” (priority 1998, published 2002).

Assays:
ICAM-1 = ICAM-1 expression on 2C TCR transgenic lymph node T cells (flow cytometry); type: cell-based, mouse; conditions: Con A plus 10 μM lactacystin; 24 h and 48 h
Method: After 24 h and 48 h, the cells were examined for ICAM-1 expression by flow cytometry, using FITC-anti-ICAM-1/1B2-PE. Monoclonal Ab 1B2 recognize a clonotypic determinant on the TCR of the transgenic T cells which are largely CD8 positive (>75%).
Cell-cell interaction is essential in antigen presentation and in T cell's help to T and B cells. The adhesion molecules are necessary to establish the cell-cell interaction. Blocking the adhesion molecules ICAM-1 and LFA-1 is known to inhibit immune responses and to suppress graft rejection. […] Therefore, inhibition of the proteasome activity will be a useful way to control undesirable immune responses during graft rejection, autoimmune diseases, and inflammation.

CD25 = CD25 (IL-2Rα) upregulation by two-color flow cytometry; type: cell-based, human; conditions: PHA; LAC 10 μM added in the beginning of the culture
Method: CD25 expression on T cells was evaluated by anti-CD25-PE/anti-CD3-FITC two-color flow cytometry. Similar results were obtained in two independent experiments, and a representative one is shown. The data are presented as two color histograms in forms of contours, as well as in an overlay histogram.
In the four systems of T and B cell activation and proliferation studied in the first section, the growth promoting activity of IL-2 is indirectly (for stimulation by PHA, anti-CD3, and anti-CD28 plus ionomycin), or directly (for SAC plus IL-2) involved. We then investigated the role of proteasome in IL-2Rα expression and IL-2 production. […] Under the experimental condition used, the viability of the LAC-treated cell was reasonable (>80% at 40 h) as described in the previous section as LAC was added only once initially. Moreover, no consistent change of IL-2 production in LAC-treated cells was a functional indication that the cell viability was reasonable and is not of a concern in interpreting the data. The results from this section indicate that IL-2Rα upregulation but not IL-2 production is proteasome-dependent, and the suppressed IL-2Rα expression likely contributes to LAC's inhibitory effect on T cells activation and proliferation. The Proteasome Activity is Critically Required Between G0 and G1/S Boundary in T Cells […]

proteasome = experiment: Proteasome activity in lysates of LAC-pretreated Jurkat cells (proteinase assay, sLLVY-MCA); type: cell-based; conditions: for proteasome activity in Jurkat cells: 3 h preincubation with LAC 6 μM
Method: B. The inhibitory effect of LAC on the proteasome activity was reversible in the cells Jurkat cells were pretreated with LAC (6 μM) in culture medium for 3 h. The cells were washed and recultured at 0.5×10^6 cells/ml for 0 h, 5 h or 21 h. The cells were then harvested, washed and sonicated. The lysate protein (20 μg/sample) was assayed for its proteinase activity under a condition at which 90% of the activity was attributed to the proteasome. The samples were in duplicates. The result is expressed as relative fluorescence intensity at 440 nm.
We used Jurkat cells that have high constitutive proteasome activity to evaluate the duration of LAC's effect once the drug entered the cells. Jurkat cells were treated with LAC (6 μM) for 3 h, which was sufficiently long for the compound to enter the cells as shown above. The cells were then thoroughly washed and recuitured, and they were harvested at 0 h, 5 h and 21 h after the wash, and the proteasome activity in the cell lysates was measured using a chromogenic chymotrypsin substrate. We have previously established that the proteinase activity measured by this assay was predominantly (more than 90%) derived from the proteasome (Wang et al., 1997, Eur. J. Immunol., supra).

Jurkat cells = experiment: Jurkat cell viability by trypan blue exclusion; type: cell-based; conditions: 6 μM LAC
Method: Tonsillar T cells (A, B, and D) and Jurkat cells (C and E) were treated with LAC (10 μM for T cells and 6 μM for Jurkat cells). LAC was added at the beginning of the culture or 40 h after T cell activation as indicated. The cells were harvested at the time points as shown. They were evaluated for their viability with trypan blue exclusion (A, B, and C), and for their mode of cell death according to DNA fragmentation (D and E). The effect of LAC on Jurkat cells was quite similar to that on the activated T cells.

[1] = system: calpain, cathepsin B, chymotrypsin, trypsin, and papain; conditions: cited from earlier work
Bik = experiment: Immunoblotting of Bik in mitochondrial fraction of Jurkat cells; type: cell-based; conditions: lactacystin 6 μM
Method: Jurkat cells were treated with lactacystin (6 μM) for 5 h (lanes 2 and 4 of panel […]) or 7 h (lane 3 of panel B), lane 1 in panels A and B is untreated control samples. The cells were separated into mitochondrial (mito in panel A and mitochondria in panel B) and cytosolic (cytosol in panel A) fractions, and the lysate of these two fractions analyzed by immunoblotting using goat anti-Bik, and rabbit anti-Bax, Bak and Bad Ab (all from Santa Cruz Biotech, Santa Cruz, Calif.) followed by enhanced chemiluminescence (ECL, kit from Amersham). […] Jurkat cells, wild type Namalwa cells and Bcl-xL transfected Namalwa cells were treated with medium (lanes 1), staurosporine (0.3 μM, lanes 2) and lactacystin (6 μM, lanes 3) for 6 H. The proteins from the mitochondrial fraction of these cells were analyzed by immunoblotting and the amount of Bik, Bcl-xL, Bax, and Bak evaluated. The same membranes were used sequentially and probed with different antibodies against these factors. A nonspecific band recognized by a monoclonal antibody against cytochrome […] (COX) was used as control for even sample loading in the lanes.

## CC(=O)N[C@@H](CSC(=O)[C@]1([C@@H](O)C(C)C)NC(=O)[C@H](C)[C@@H]1O)C(=O)O [LAC, lactacystin]
ICAM-1
  upregulation of ICAM-1 on CD8 positive T cells: effectively block the upregulation of ICAM-1
CD25
  CD25 upregulation in CD3+ T cells: significantly inhibited
proteasome
  active duration within the cell and in the culture media: about 16 h
proteasome; 0 h after wash
  proteasome activity in Jurkat cells: almost completely inhibited
proteasome; 5 h after wash
  proteasome activity in Jurkat cells: still significantly inhibited
proteasome; 21 h after wash
  proteasome activity in Jurkat cells: returned to a near-normal level
proteasome; Jurkat cells after 3 h LAC 6 μM and wash
  time in which LAC loses its activity in the cells: ≤ 21 h
Jurkat cells; 24 h culture
  trypan blue positive cells: about 60%
Jurkat cells; less than 8 h exposure
  cell death (trypan blue): did not induce apparent Jurkat cell death
[1]
  effect on other proteases: does not affect
Bik; 6 h, staurosporine 0.3 μM
  accumulation of Bik in Jurkat cells: accumulates
Bik; 4 h, 5 h and 7 h
  amount of Bik: demonstable increase
